Data as given in the supplement of paper PMC4862054.

Key:
Assay in all cases: drug sensitivity score (DSS), CellTiter-Glo (DSS (AUC-based score)); higher = stronger drug effect (viability inhibition or cytotoxicity); extreme values may be limits of the assay
Conditions in all cases: incubation time: 72 h
MDA-MB-453 = test system: MDA-MB-453
In short: (§1)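 Normalisation on every plate relied on 0.1 % DMSO and a positive kill control. The plates, 384-well format, held compound at 5 concentrations 10-fold apart across a compound-specific 10,000-fold range, and breast cancer cell lines in 20 µl suspension were incubated on them for 72 h before CellTox Green and then CellTiter-Glo readings. The drug sensitivity score derives from the area under the fitted dose-response curve.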

MFM-223 = test system: MFM-223
In short: as §1

HCC1143 = test system: HCC1143
In short: as §1

HCC1599 = test system: HCC1599
In short: as §1

HCC1937 = test system: HCC1937
In short: as §1

MDA-MB-468 = test system: MDA-MB-468
In short: as §1

Hs578T = test system: Hs578T
In short: as §1

BT-549 = test system: BT-549
In short: as §1

SK-BR-3 = test system: SK-BR-3
In short: as §1

BT-474 = test system: BT-474
In short: as §1

CAL-51 = test system: CAL-51
In short: as §1

CAL-148 = test system: CAL-148
In short: as §1

MCF-10A = test system: MCF-10A
In short: as §1

MDA-MB-436 = test system: MDA-MB-436
In short: as §1

CAL-85-1 = test system: CAL-85-1
In short: as §1

Structure (SMILES) | drug sensitivity score (MDA-MB-453) | drug sensitivity score (MFM-223) | drug sensitivity score (HCC1143) | drug sensitivity score (HCC1599) | drug sensitivity score (HCC1937) | drug sensitivity score (MDA-MB-468) | drug sensitivity score (Hs578T) | drug sensitivity score (BT-549) | drug sensitivity score (SK-BR-3) | drug sensitivity score (BT-474) | drug sensitivity score (CAL-51) | drug sensitivity score (CAL-148) | drug sensitivity score (MCF-10A) | drug sensitivity score (MDA-MB-436) | drug sensitivity score (CAL-85-1)
O=C(O)c1ccc(-c2c[nH]c3ncc(-c4ccccc4)cc23)cc1C1CCCC1 | 0 | 0 | 0 | 0 | 0 | 0 | 0.128 | 0 | 2.12 | 0.507 | 0 | 0 | 0 | 0 | 0
NC(=O)Nc1cc(-c2cccc(F)c2)sc1C(=O)N[C@H]1CCCNC1 [AZD7762] | 5.03 | 0 | 4.03 | 6.96 | 2.78 | 1.93 | 3.86 | 8.18 | 3.78 | 4.13 | 1.07 | 0 | 3.48 | 5.18 | 9.45
